Laboratory results from patent US5147876A, “2,6-di,2,4,6-, 2,5,6-tri and 2,4,5,6-tetra-substituted pyrimidines, their pharmaceutically acceptable salts, pharmaceutical compositions containing same and their use in the treatment of neurological diseases” (Mitsui Petrochemical Industries, Ltd., priority 1988, dated 1992).

What was measured:
[1] = system: neuro-2a (mouse neuroblastoma cells); experiment: Action on neuro-2a: proportion of cells containing outgrown neurites; assay type: cell-based; conditions: mean ± S.D.
Procedure, shortened: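 Mouse neuro-2a cells at 1,000 cells/well in DMEM with 10% FCS were cultured one day at 37 °C, 5% CO2, then glutaraldehyde-fixed and methylene-blue-stained. The proportion of cells bearing a neurite at least twice the cell's long diameter was counted over >200 cells; up to 6 concentrations, triplicate runs.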

[2] = system: NS-20Y (mouse neuroblastoma cells); experiment: Activity on NS-20Y cells: appearance of neurites; assay type: cell-based
Description: The effects of the compounds of this invention on neuroblastoma cells were examined by the following method.
Mouse neuro 2a cells in the logarithmic growth period in the Dulbecco's modified Eagle's medium DMEM, containing 100 units/ml of penicillin G sodium and 100 micrograms/ml of streptomycin sulfate]containing 10 % of FCS were seeded in a 48-well plate so that the number of cells was 1,000 cells/well, and cultured for one day in 0.25 ml of the culture fluid in each well in an incubator containing 5 % of carbon dioxide gas in air at 37° C. Then, a 4 % aqueous glutaraldehyde solution in the same amount as a medium (0.25 ml) was added, and the culture fluid was left to stand at room temperature for 2 hours to fix the cells. After washing with water, a 0.05 % aqueous solution of methylene blue was added to stain the cells Under a microscope, the number of cells containing outgrown neurites (cells having at least one neurite with a length of at least two times as large as the long diameter of the cell) was counted visually, and the proportion of these cells in the entire cells was calculated. The well was observed over 5 or more visual fields (at least 2 % of the entire surface area of the well) continuous to the left and right from a mark put at the center of the well, and more than 200 cells was counted. One drug compound was used in 6 different concentrations at most, and three runs were conducted for each concentrations.
Mouse neuroblastoma cells NS-20Y were similarly cultured in a dish coated with polyornithine, and the effects of the compounds were examined.

Acute toxicity on mice = assay type: in vivo; conditions: mouse, in vivo, ip, 24 hours after administration; read-out: Estimated LD50
Description: The acute toxicity of the compounds of the invention was examined by the following method.
Male ddy-strain 5-week old mice, 4-6- per group, were used as experimental animals. Each of the compounds was intraperitoneally (i.p.), and the toxicity of the compound was assessed 24 hours after the administration.

Compound | Number of cells having neurites with a length at least two times the diameter of each cell/total number of cells ([1]; 0.03 mM) [%] | Number of cells having neurites with a length at least two times the diameter of each cell/total number of cells ([1]; 0.1 mM) [%] | LD50 at 24 h (Acute toxicity on mice) [mg/kg] | Number of cells having neurites with a length at least two times the diameter of each cell/total number of cells ([1]; 0.3 mM) [%] | Number of cells having neurites with a length at least two times the diameter of each cell/total number of cells ([1]; 1 mM) [%] | Number of cells in which neurites appeared/total number of cells ([2]; 48 hours, 0.1 mM) | also measured
CC(C)C(=O)N(C)c1ccnc(N2CCC(c3ccccc3)CC2)n1 [Compound 216] | 6.3 ± 2.4 | 26.6 ± 5.6 | > 1000 | – | – | – | Number of cells having neurites with a length at least two times the diameter of each cell/total number of cells ([1]; 0.01 mM): 3.7 ± 0.4%; Number of cells in which neurites appeared/total number of cells ([2]; 24 hours, 0.025 mM): 3/49; Number of cells in which neurites appeared/total number of cells ([2]; 48 hours, 0.025 mM): 24/50; Number of cells in which neurites appeared/total number of cells ([2]; 48 hours, 0.05 mM): 20/50
O=C(Nc1ccnc(N2CCC(c3ccccc3)CC2)n1)c1ccccc1 [Compound 160] | – | 11.3 ± 6.3 | > 1000 | 6.7 ± 4.3 | – | – | Number of cells in which neurites appeared/total number of cells ([2]; 24 hours, 0.5 mM): 10/53; Number of cells in which neurites appeared/total number of cells ([2]; 48 hours, 0.5 mM): 2/50
CN(C(=O)c1ccc([N+](=O)[O-])cc1)c1ccnc(N2CCC(c3ccccc3)CC2)n1 [Compound 264] | – | 5.2 ± 3.1 | 500 to 1000 | 8.7 ± 1.6 | 15.2 ± 3.2 | – | Number of cells having neurites with a length at least two times the diameter of each cell/total number of cells ([1]; 3 mM): 7.2 ± 1.8%; Number of cells in which neurites appeared/total number of cells ([2]; 24 hours, 0.4 mM): 8/48; Number of cells in which neurites appeared/total number of cells ([2]; 48 hours, 0.4 mM): 4/50
CNc1cc(C)nc(N2CCC(c3ccccc3)CC2)n1 [Compound 1090] | 5.7 ± 0.6 | 12.2 ± 2.5 | 500 to 1000 | 10.3 ± 0.9 | – | 3/50 | Number of cells having neurites with a length at least two times the diameter of each cell/total number of cells ([1]; 0.01 mM): 3.7 ± 1.0%; Number of cells in which neurites appeared/total number of cells ([2]; 24 hours, 0.02 mM): 4/50; Number of cells in which neurites appeared/total number of cells ([2]; 24 hours, 0.1 mM): 21/50
CN(C(=O)c1ccccc1)c1ccnc(N2CCN(Cc3ccccc3)CC2)n1 [Compound 368] | 3.5 ± 0.5 | 9.0 ± 1.8 | 500 to 1000 | – | – | 5/50 | Number of cells in which neurites appeared/total number of cells ([2]; 24 hours, 0.1 mM): 14/50; Number of cells in which neurites appeared/total number of cells ([2]; 48 hours, 0.05 mM): 8/51
CN(C(=O)c1ccccc1)c1ccnc(N2CCCC2)n1 [Compound 120] | – | 4.9 ± 1.0 | > 1000 | 7.5 ± 4.1 | – | – | Number of cells in which neurites appeared/total number of cells ([2]; 24 hours, 0.5 mM): 23/50; Number of cells in which neurites appeared/total number of cells ([2]; 48 hours, 0.5 mM): 4/50
CN(C(=O)C1CCCCC1)c1ccnc(N2CCC(c3ccccc3)CC2)n1 [Compound 232] | 3.9 ± 1.8 | 18.7 ± 5.2 | > 1000 | – | – | – | Number of cells in which neurites appeared/total number of cells ([2]; 24 hours, 0.025 mM): 2/50; Number of cells in which neurites appeared/total number of cells ([2]; 48 hours, 0.01 mM): 2/49
COc1cc(C(=O)N(C)c2ccnc(N3CCC(c4ccccc4)CC3)n2)cc(OC)c1OC [Compound 280] | 4.5 ± 1.2 | 17.2 ± 1.3 | 500 to 1000 | 13.4 ± 3.5 | 17.4 ± 2.6 | 8/53 | Number of cells in which neurites appeared/total number of cells ([2]; 24 hours, 0.2 mM): 3/50
CC(=O)N(C)c1cc(C)nc(N2CCC(c3ccccc3)CC2)n1 [Compound 392] | – | 14.6 ± 6.0 | 500 to 1000 | 30.9 ± 5.7 | 23.8 ± 4.2 | 3/43 | Number of cells having neurites with a length at least two times the diameter of each cell/total number of cells ([1]; 3 mM): 11.1 ± 9.7%; Number of cells in which neurites appeared/total number of cells ([2]; 24 hours, 0.1 mM): 8/50; Number of cells in which neurites appeared/total number of cells ([2]; 48 hours, 0.05 mM): 6/51
O=C(c1ccccc1)N(Cc1ccccc1)c1nccc(N2CCC(c3ccccc3)CC2)n1 [Compound 660] | 13.5 ± 1.3 | 9.1 ± 3.7 | 500 to 1000 | – | – | 4/50 | Number of cells in which neurites appeared/total number of cells ([2]; 24 hours, 0.1 mM): 5/50
O=C(c1ccccc1)N(Cc1ccccc1)c1ccnc(N2CCC(c3ccccc3)CC2)n1 [Compound 192] | – | – | 500 to 1000 | 12.1 ± 1.5 | 14.6 ± 1.0 | – | Number of cells in which neurites appeared/total number of cells ([2]; 24 hours, 0.4 mM): 23/50; Number of cells in which neurites appeared/total number of cells ([2]; 48 hours, 0.4 mM): 4/50
Cc1cnc(N2CCC(c3ccccc3)CC2)nc1N(C)C(=O)c1ccccc1 [Compound 424] | 4.5 ± 1.4 | 7.6 ± 1.3 | > 1000 | – | – | – | Number of cells in which neurites appeared/total number of cells ([2]; 24 hours, 0.4 mM): 16/50; Number of cells in which neurites appeared/total number of cells ([2]; 48 hours, 0.4 mM): 3/50
CC(=O)N(C)c1ccnc(N2CCC(c3ccccc3)CC2)n1 [Compound 208] | – | – | > 1000 | – | 10.6 ± 1.5 | 28/50 | Number of cells having neurites with a length at least two times the diameter of each cell/total number of cells ([1]; 0.5 mM): 7.2 ± 2.3%; Number of cells having neurites with a length at least two times the diameter of each cell/total number of cells ([1]; 2 mM): 11.1 ± 1.2%; Number of cells having neurites with a length at least two times the diameter of each cell/total number of cells ([1]; 3 mM): 8.0 ± 4.0%; Number of cells in which neurites appeared/total number of cells ([2]; 24 hours, 0.1 mM): 27/53; Number of cells in which neurites appeared/total number of cells ([2]; 24 hours, 0.25 mM): 17/51
CN(C(=O)c1ccccc1)c1ccnc(N2CCN(C(c3ccccc3)c3ccc(Cl)cc3)CC2)n1 (stereo not drawn) [Compound 376] | 13.6 ± 1.2 | 14.7 ± 1.5 | 500 to 1000 | 17.2 ± 1.4 | 16.4 ± 3.0 | 2/50 | Number of cells in which neurites appeared/total number of cells ([2]; 24 hours, 0.2 mM): 2/50
CN1CCN(c2nccc(N(C)C(=O)c3ccccc3)n2)CC1 [Compound 352] | – | 3.2 ± 1.9 | 500 to 1000 | 9.9 ± 1.6 | – | – | –
CC1CCCCN1c1nccc(N(C)C(=O)c2ccccc2)n1 (stereo not drawn) [Compound 154] | 5.2 ± 1.5 | 16.2 ± 2.1 | > 1000 | – | – | – | –
CCOC(=O)N(C)c1ccnc(N2CCC(c3ccccc3)CC2)n1 [Compound 2242] | 3.3 ± 0.9 | 24.8 ± 2.9 | 500 to 1000 | – | – | – | –
CON(C(=O)c1ccccc1)c1ccnc(N2CCC(c3ccccc3)CC2)n1 [Compound 2318] | 7.7 ± 1.4 | 35.1 ± 1.3 | 500 to 1000 | 18.6 ± 5.2 | 8.8 ± 1.3 | – | –
CN(C(=O)c1ccccc1)c1ccnc(N2CCC(C(=O)c3ccc(Cl)cc3)CC2)n1 [Compound 2310] | – | 8.3 ± 1.8 | 500 to 1000 | 12.1 ± 3.6 | – | – | –
